Key:
C. sativa = tested on: C. sativa; set-up: species or system Cannabis sativa; conditions: in vivo
medical cannabis variety = conditions: 0.1 mM, foliar application; cited from earlier work
Fusarium sp. = assay: Protective effect on rooting clones of C. sativa against Fusarium sp. (Table 1); type: in vivo; conditions: for Total Alive: cultivar III clones alive; for Total Alive / Total Dead: total of 30 replicate clones per elicitor treatment; for Total Dead: cultivar III clones dead; for Mean Survival: rooting clones of cultivar III, sprayed daily ~2 ml solution/clone, inoculated with Fusarium culture (~10^3 Cfu/ml), survival one week later, three repeats of 10 clones
Procedure: Cultivar III was shown from the data in FIG. 1B to be most susceptible to mold pathogens. Thus, 10 clones of cultivar III were selected to be treated with formulations containing bacterial/fungal PAMP elicitor compounds (as listed in Table 1) formulated in water. Treatments were performed by spraying the clones daily with ˜2 ml solution/clone, starting one week after cutting. Plants were inoculated two weeks after cutting (one week after treatment application) by applying 10 ml Fusarium culture (˜10^3 Cfu/ml) to the water tray. After one hour, clones were removed and placed in clean water trays. Survival was assessed one week later upon reaching the vegetative growth phase. The experiment was repeated three times for a total of 30 replicate clones per elicitor treatment.

cannabis sativa = conditions: cited from earlier work

SMILES	Yield (g/plant), Cultivar I (C. sativa) [g/plant]	Yield (g/plant), Cultivar II (C. sativa)	Yield (g/plant), Cultivar III (C. sativa) [g/plant]	increase of CBDA content in inflorescences (medical cannabis variety) [%]	Total Alive (Fusarium sp.)	Total Dead (Fusarium sp.)	Mean Survival (Fusarium sp.) [%]	A9-THC in extract (cannabis sativa; 1 M of SA (highest)) [%]	CBD in extract (cannabis sativa; 1 M of SA (highest)) [%]	TPC, TFC, TCC, Chl a, Chl b, and antioxidant capacity (cannabis sativa; 1 M treatment, lowest in control plants)
COc1cc(/C=C/CO)ccc1O [Coniferyl Alcohol]	13.6 ± 2.9	12.8 ± 1.3 g/plant	12.4 ± 1.8	–	–	–	–	–	–	–
O=C(O)[C@H]1OC(O)[C@H](O)[C@@H](O)[C@H]1O (stereo partly shown) [D Galactoronic Acid]	13.5 ± 1.8	11.5 ± 2.1 g/plant	10.2 ± 1.8	–	–	–	–	–	–	–
CC/C=C\CC1C(=O)CCC1CC(=O)OC (stereo not shown) [MeJA, methyl jasmonate]	–	–	–	15.6	–	–	–	–	–	–
CC(=O)N[C@H]1C(O)O[C@H](CO)[C@@H](O)[C@@H]1O (stereo partly drawn) [N-Acetyl-D-Glucosamine (4), N-Acetyl-D-Glucosamine]	11.6 ± 1.7	10.7 ± 1.9 g/plant	9.2 ± 0.7	–	21	9	70.0	–	–	–
CC(=O)N[C@H]1C(O)O[C@H](CO)[C@@H](O)[C@@H]1O[C@H](C)C(=O)O (stereo partly shown) [N-Acetylmuramic Acid]	13.4 ± 2.1	11.5 ± 2^ g/plant	11.5 ± 1.6	–	21	9	70.0	–	–	–
OC/C=C/c1ccc(O)cc1 [Paracoumaryl Alcohol]	14.7 ± 2.5	9.2 ± 1 g/plant	11.9 ± 2.9	–	–	–	–	–	–	–
O=C(O)c1ccccc1O [SA, salicylic acid]	–	–	–	–	–	–	–	22.84	37.81	highest
COc1cc(/C=C/CO)cc(OC)c1O [Sinapyl Alcohol (Syringil monomer), Sinapyl Alcohol]	16.4 ± 1.2	12.9 ± 2.1 g/plant	13.5 ± 2.6	–	–	–	–	–	–	–
